Here are results for 2 molecules from patent publication US20170071908A1, “PYRROLIDINE- SUBSTITUTED FLAVONE DERIVATIVES FOR PREVENTION OR TREATMENT OF ORAL MUCOSITIS” (priority 2012, published 2017).

In series [1] the test system is Radiation Induced Oral Mucositis in Hamsters. Put plainly: Radiation induced oral mucositis in hamsters (left buccal pouch, single 40 Gy dose on Day 0). The conditions noted are these: for maximum mean mucositis score: score scale 0-5. The series is classed as in vivo, Male LVG Syrian Golden Hamsters. An excerpt:
Male LVG Syrian Golden Hamsters, 5 to 6 weeks old, weighing 87.7 to 97.1 g (Charles River Laboratories, US) at the commencement of the study, were used. An ear punch was used to number the animals individually. Approximately 8-10 animals were housed per cage. The animals were acclimatized for at least 3 days before experimentation. During this period, they were observed daily to ensure that the animals are in good condition. The animals that presented poor condition were rejected.
Animals were randomly and prospectively divided into 5 groups: • i) Group 1: Animals (n=8) were administered with 5% w/v dextrose monohydrate intraperitoneally from Day 0 to Day 4 or from Day 0 to Day 9. • ii) Group 2: Animals (n=10) were administered with 10 mg/kg of compound A intraperitoneally from Day 0 to Day 4. • iii) Group 3: Animals (n=10) were administered with 20 mg/kg of compound A intraperitoneally from Day 0 to Day 4. • iv) Group 4: Animals (n=10) administered with 10 mg/kg of compound A intraperitoneally from Day 0 to Day 9. • v) Group 5: Animals (n=10) administered with 20 mg/kg of compound A intraperitoneally from day Day 0 to Day 9.
Mucositis induction: The animals were anesthetized and the left buccal pouch was everted, fixed and isolated using a lead shield. The left buccal pouch mucosa of the animal was exposed to radiation at a rate of 2.0 Gy/minute. A single dose of radiation (40 Gy/dose) was administered to all animals on Day 0. Radiation was generated with 160 kilovolt potential source at a focal distance of 21 cm, hardened with a 0.35 mm Al filtration system. Animals of Group 2 to 5 were treated with compound A as per the schedule detailed above one hour prior to the radiation. The volume administered to all the above Groups was 0.2 mL/100 g.
For evaluation of mucositis, the animals were anesthetized with an inhalation anesthetic and the left buccal pouch everted. Mucositis was scored visually using the following criteria for evaluation:
Weight change and survival were also measured throughout the study.
The significance of differences observed between the different treatment groups was evaluated by comparing the days with mucositis scores ≧3 and […] between groups using a chi-squared analysis.
An analysis of the severity of mucositis was performed using Mann-Whitney rank sum analysis to compare the visual mucositis scores for each treatment group to the vehicle control on each day of the analysis.
The percentage of animals in each group with ulcerative mucositis at each day of the study was evaluated.

Series [2] deals with Radiation Induced Oral Mucositis. Kind of series: Clinical study of compound A with external beam radiotherapy in squamous cell carcinoma of oral cavity, oropharynx and hypopharynx. The series is classed as in vivo. The protocol: The compound A and external beam radiotherapy (EBRT) were administered for six weeks i.e., 2 cycles of compound A and […] of radiation. One, three weeks (21 days) cycle of combination regimen comprised of dosing compound A for days 1 to 5 and EBRT on days 1 to 5, 8 to 12 and 15 to 19. The combination treatment schedule is depicted in the following table:
A] Dose of compound A: In the Phase I part of the clinical trial, 11 patients were enrolled and 100 mg/m^2/day of compound A was determined to be the maximum tolerated dose (MTD) as two dose limiting toxicities occurred at the higher dose of 140 mg/m^2/day. Additional 12 subjects were enrolled at the MTD dose level to confirm the safety and tolerability of that dose. B] Procedure: Compound A (100 mg/m^2/day) in 5% dextrose (200 mL) was administered to 19 patients as intravenous infusion over 30 minutes on days 1 to 5 of a 21 day cycle. After about 1.5 hours of infusion of compound A, the patients received EBRT (2 Grays per day for 5 days) to the affected body parts (primary tumor site and involved cervical lymph nodes) through linear accelerator. Patients continued to receive EBRT (2 Grays per day) on days 8-12 and 15-19. On days 6, 7, 13 and 14 patients were not infused with compound A, neither were exposed to radiotherapy.
The procedure was repeated for cycle 2.
At investigator's discretion, some patients were given additional radiation of up to 10 additional Grays (2 Grays per day for 5 days) commencing immediately after the completion of the prescribed radiation dose of 60 Grays. Total radiation dose for spinal cord was less than 48 Grays.
The Common Terminology Criteria for Adverse Events (version 3) (version 3, Publish Date: Aug. 9, 2006) laid down by the National Cancer Institute for oral mucositis in radiation therapy was followed.

For series [3] the following is noted: amifostine therapy, serious side-effect; cited from earlier work.
The mark [4] stands for this setting: 19 evaluable patients, 100 mg/m^2/day i.v. plus EBRT, CTCAE version 3.

“Also recorded” adds a separate entry of the source.

`CN1CC[C@@H](c2c(O)cc(O)c3c(=O)cc(-c4ccccc4Cl)oc23)[C@@H]1CO.Cl` [Compound A, (+)-trans-2-(2-Chlorophenyl)-5,7-dihydroxy-8-(2-hydroxymethyl-1-methyl-pyrrolidin-3-yl)-chromen-4-one hydrochloride]: in series [1] (10 mg/kg from Days 0 to 9), the “percent of days and number of days with ulcerative mucositis (score ≧3) compared to vehicle control” value is given as “significantly reduced”. In addition, the “maximum mean mucositis score” value amounted to 3.0 in series [1] (Group 2: 10 mg/kg intraperitoneally Day 0 to Day 4, maximum on Day 18); 3.0 in series [1] (Group 3: 20 mg/kg intraperitoneally Day 0 to Day 4, maximum on Day 16); 3.0 in series [1] (Group 4: 10 mg/kg intraperitoneally Day 0 to Day 9, maximum on Day 16); 3.1 in series [1] (Group 5: 20 mg/kg intraperitoneally Day 0 to Day 9, maximum on Day 16). The “mucositis severity (visual mucositis scores vs vehicle control, Mann-Whitney rank sum)” value is “strong trend of lower scores” in series [1] (Group 4: 10 mg/kg i.p. Day 0 to Day 9, Day 18 (p=0.073) and Day 28 (p=0.064)); “significant reductions in mucositis; also recorded: significant improvement in mucositis scores” in series [1] (Group 4: 10 mg/kg i.p. Day 0 to Day 9, Day 24 (p=0.002) and Day 26 (p=0.024), hydrochloride, 10 mg/kg). In addition, the “reduction of percentage of animals with ulcerative mucositis (score ≧3) compared to Group 1” value was 72.7% in series [1] (Group 4: 10 mg/kg i.p. Day 0 to Day 9, Days 24 to 28, first of three values); 83.8 in series [1] (Group 4: 10 mg/kg i.p. Day 0 to Day 9, Days 24 to 28, second of three values); 77.8% in series [1] (Group 4: 10 mg/kg i.p. Day 0 to Day 9, Days 24 to 28, third of three values). For the same molecule, the “percentage of animal days with a mucositis score of ≧3” value in series [1] (Group 4: 10 mg/kg i.p. Day 0 to Day 9, entire study duration, vehicle control 63.0%) is on record as 43.5%. The “percent body weight change among groups” value in series [1] (Groups 1 to 5, one-way ANOVA) is on record as “no significant difference”. In addition, the “percentage of animal days with a mucositis score of ≧3 compared to vehicle control” value in series [1] (other 3 treatment groups (Groups 2, 3 and 5), chi-squared analysis) is recorded as “not significantly different”. Further, in series [2] (19 evaluable patients, 100 mg/m^2/day i.v. plus EBRT), the “radioprotective effect, compared with historical rates of serious RIM (Grade 3 and above, Trotti et al.)” value is on record as “has radioprotective effects”. In series [2] (19 evaluable patients, 100 mg/m^2/day i.v. plus EBRT 2 Grays per day, 2 cycles, CTCAE version 3), the “events of mucositis reported (all grades)” value was “five”. Besides, in series [2] (setting [4]), the “events of mild mucositis (Grade 1)” value is on record as “one”. For the same molecule, the “events of moderate mucositis (Grade 2)” value in series [2] (setting [4]) is reported as “one”. The “events of moderate stomatitis (Grade 2)” value in series [2] (setting [4]) is listed as “two”. For the same molecule, the “events of severe mucositis (Grade 3)” value in series [2] (setting [4]) is “one”. In series [2] (Phase I part, intravenous infusion days 1 to 5 of a 21 day cycle, with EBRT), the “maximum tolerated dose (MTD)” value was determined as 100 mg/m^2/day. Moreover, in series [2] (human, in vivo), the dose limiting toxicities result is listed as “two”.

`NCCCNCCSP(=O)(O)O` [amifostine, Amifostine]: the “hypotension, share of patients” value in series [3] is 62%.
